Data as given in ChEMBL document CHEMBL5537201, “Discovery of Unique Bis-Substituted Aromatic Amide Derivatives as Novel Highly Potent Antibiotics for Combating Methicillin-Resistant Staphylococcus aureus (MRSA)” (J Med Chem, 2024).
≈ marks a conversion by molar mass, not a printed value. Calls of active or inactive are those of the source. The calls are words filed in the database; no cut-off is given here.

Legend:
Staphylococcus aureus [1] = test: Antimicrobial activity against methicillin resistant Staphylococcus aureus clinical isolate MRS207 assessed as reduction in bacterial growth incubated for 24 hrs by two-fold broth dilution method; format: functional
Streptomyces albus = test: Antimicrobial activity against Streptomyces albus SHBC D11158 assessed as reduction in bacterial growth incubated for 24 hrs by two-fold broth dilution method; format: functional
[2] = Cytotoxicity against human HaCaT cells assessed as reduction in cell viability measured after 24 hrs by CCK-8 method; format: toxicity, cell-based
Staphylococcus aureus [3] = test: Antimicrobial activity against methicillin resistant Staphylococcus aureus clinical isolate MRS108 assessed as reduction in bacterial growth incubated for 24 hrs by two-fold broth dilution method; format: functional
[4] = Selectivity index, ratio of IC50 for African green monkey Vero E6 cells to MIC for Staphylococcus aureus ATCC6538; format: toxicity; settings: read-out: Selectivity Index
[5] = Hemolytic activity in rabbit Red blood cell assessed as hemolysis incubated for 1 hr by two-fold microdilution method; format: toxicity, cell-based, Oryctolagus cuniculus, Erythrocyte; settings: red blood cells (erythrocytes)
Staphylococcus aureus [6] = test: Antimicrobial activity against methicillin resistant Staphylococcus aureus clinical isolate MRS200 assessed as reduction in bacterial growth incubated for 24 hrs by two-fold broth dilution method; format: functional
[7] = Selectivity index, ratio of HC50 for rabbit Red blood cell to MIC for Staphylococcus aureus ATCC6538; format: toxicity; settings: red blood cells (erythrocytes), read-out: Selectivity Index
Staphylococcus aureus [8] = test: Antimicrobial activity against methicillin resistant Staphylococcus aureus clinical isolate MRS84 assessed as reduction in bacterial growth incubated for 24 hrs by two-fold broth dilution method; format: functional
Staphylococcus hominis = test: Antimicrobial activity against methicillin-resistant Staphylococcus hominis assessed as reduction in bacterial growth incubated for 24 hrs by two-fold broth dilution method; format: functional
Staphylococcus aureus [9] = test: Antimicrobial activity against methicillin resistant Staphylococcus aureus clinical isolate MRS23 assessed as reduction in bacterial growth incubated for 24 hrs by two-fold broth dilution method; format: functional
Staphylococcus aureus [10] = test: Antimicrobial activity against methicillin resistant Staphylococcus aureus clinical isolate MRS152 assessed as reduction in bacterial growth incubated for 24 hrs by two-fold broth dilution method; format: functional
HeLa = test: Cytotoxicity against human HeLa cells assessed as reduction in cell viability measured after 24 hrs by CCK-8 method; format: functional, cell-based
Staphylococcus aureus [11] = test: Antimicrobial activity against Staphylococcus aureus ATCC6538 assessed as reduction in bacterial growth incubated for 24 hrs by two-fold broth dilution method; format: functional
Staphylococcus aureus [12] = test: Antimicrobial activity against methicillin resistant Staphylococcus aureus clinical isolate MRS97 assessed as reduction in bacterial growth incubated for 24 hrs by two-fold broth dilution method; format: functional
[13] = Cytotoxicity against African green monkey Vero E6 cells assessed as reduction in cell viability measured after 24 hrs by CCK-8 method; format: toxicity, cell-based, Chlorocebus sabaeus, Vero C1008
[14] = Cytotoxicity against HEK293 cells assessed as reduction in cell viability measured after 24 hrs by CCK-8 method; format: toxicity, cell-based; settings: human
Staphylococcus aureus [15] = test: Induction of drug resistance in Staphylococcus aureus ATCC6538 assessed as change in MIC measured after 10 passages; format: functional
Staphylococcus aureus [16] = test: Antimicrobial activity against methicillin resistant Staphylococcus aureus clinical isolate MRS70 assessed as reduction in bacterial growth incubated for 24 hrs by two-fold broth dilution method; format: functional
Staphylococcus aureus [17] = test: Antimicrobial activity against methicillin resistant Staphylococcus aureus clinical isolate MRS153 assessed as reduction in bacterial growth incubated for 24 hrs by two-fold broth dilution method; format: functional
Staphylococcus aureus [18] = test: Antimicrobial activity against methicillin resistant Staphylococcus aureus clinical isolate MRS1 assessed as reduction in bacterial growth incubated for 24 hrs by two-fold broth dilution method; format: functional
Staphylococcus aureus [19] = test: Antimicrobial activity against Staphylococcus aureus N315 assessed as reduction in bacterial growth incubated for 24 hrs by two-fold broth dilution method; format: functional
Staphylococcus aureus [20] = test: Antimicrobial activity against methicillin resistant Staphylococcus aureus clinical isolate MRS121 assessed as reduction in bacterial growth incubated for 24 hrs by two-fold broth dilution method; format: functional
A549 = test: Cytotoxicity against human A549 cells assessed as reduction in cell viability measured after 24 hrs by CCK-8 method; format: functional, cell-based; settings: A549, 24 h
Staphylococcus aureus [21] = test: Antimicrobial activity against methicillin resistant Staphylococcus aureus clinical isolate MRS273 assessed as reduction in bacterial growth incubated for 24 hrs by two-fold broth dilution method; format: functional
Staphylococcus aureus [22] = test: Bactericidal activity against Staphylococcus aureus ATCC6538 assessed as reduction in survival rate at 5 to 10 times MIC measured after 30 to 120 mins by colony counting method relative to control; format: functional; settings: time 30-120 min

O=C(CCC(F)(F)F)N(Cc1cc2ccccc2s1)c1cc(-c2ccc(Cl)cc2)ccc1O
MIC (Staphylococcus aureus [1]): 16 µg/mL (≈ 32.7 µM) | MIC (Streptomyces albus): 4 µg/mL (≈ 8.16 µM) | IC50 at 24 h [2]: 13.8 µg/mL (≈ 28.2 µM) | MIC (Staphylococcus aureus [3]): 6 µg/mL (≈ 12.2 µM) | selectivity ratio [4]: 21 | HC50 at 1 h [5]: 1920 µg/mL | MIC (Staphylococcus aureus [6]): 16 µg/mL (≈ 32.7 µM) | selectivity ratio [7]: > 1000 | MIC (Staphylococcus aureus [8]): 3 µg/mL (≈ 6.12 µM) | MIC (Staphylococcus hominis): 4 µg/mL (≈ 8.16 µM) | MIC (Staphylococcus aureus [9]): 16 µg/mL (≈ 32.7 µM) | MIC (Staphylococcus aureus [10]): 6 µg/mL (≈ 12.2 µM) | IC50 (HeLa): 22.8 µg/mL (≈ 46.6 µM) | MIC (Staphylococcus aureus [11]): 1 µg/mL (≈ 2.04 µM) | MIC (Staphylococcus aureus [12]): 3 µg/mL (≈ 6.12 µM) | IC50 at 24 h [13]: 21.5 µg/mL (≈ 43.8 µM) | IC50 at 24 h [14]: > 25 µg/mL | Activity (Staphylococcus aureus [15]): Active | MIC (Staphylococcus aureus [16]): 6 µg/mL (≈ 12.2 µM) | MIC (Staphylococcus aureus [17]): 6 µg/mL (≈ 12.2 µM) | MIC (Staphylococcus aureus [18]): 6 µg/mL (≈ 12.2 µM) | MIC (Staphylococcus aureus [19]): 1 µg/mL (≈ 2.04 µM) | MIC (Staphylococcus aureus [20]): 3 µg/mL (≈ 6.12 µM) | IC50 (A549): 16.2 µg/mL (≈ 33.1 µM) | MIC (Staphylococcus aureus [21]): 16 µg/mL (≈ 32.7 µM)

O=C(CCC(F)(F)F)N(Cc1cc2ccccc2s1)c1cc(-c2ccccc2C(F)(F)F)ccc1O
MIC (Staphylococcus aureus [11]): > 16 µg/mL | MIC (Staphylococcus aureus [19]): > 16 µg/mL

CC(C)(C)c1ccc(-c2ccc(O)c(N(Cc3cc4ccccc4s3)C(=O)CCC(F)(F)F)c2)cc1
MIC (Staphylococcus aureus [11]): 2 µg/mL (≈ 3.91 µM) | MIC (Staphylococcus aureus [19]): 1 µg/mL (≈ 1.95 µM)

CCCCC(=O)N(Cc1cc2ccccc2c2ccccc12)c1ccc2ccccc2c1O
MIC (Staphylococcus aureus [11]): 62.5 µg/mL (≈ 144 µM) | MIC (Staphylococcus aureus [19]): 125 µg/mL (≈ 288 µM)

O=C(CCC(F)(F)F)N(Cc1cc2ccccc2s1)c1ccc(-c2ccccc2)c(O)c1
MIC (Staphylococcus aureus [11]): 2 µg/mL (≈ 4.39 µM) | MIC (Staphylococcus aureus [19]): > 16 µg/mL

CCCCC(=O)N(Cc1ccc2c(c1)CCO2)c1ccc2ccccc2c1O
MIC (Staphylococcus aureus [11]): 62.5 µg/mL (≈ 166 µM) | MIC (Staphylococcus aureus [19]): 62.5 µg/mL (≈ 166 µM)

COc1cc(-c2ccccc2)ccc1N(Cc1cc2ccccc2s1)C(=O)CCC(F)(F)F
MIC (Staphylococcus aureus [11]): > 16 µg/mL | MIC (Staphylococcus aureus [19]): > 16 µg/mL

O=C(CCC(F)(F)F)N(Cc1cc2ccccc2s1)c1cccc(-c2ccccc2)c1O
MIC (Staphylococcus aureus [11]): > 16 µg/mL | MIC (Staphylococcus aureus [19]): > 16 µg/mL

O=C(CCC(F)(F)F)N(Cc1cc2ccccc2s1)c1cc(-c2ccc(C(F)(F)F)cc2)ccc1O
MIC (Staphylococcus aureus [1]): 16 µg/mL (≈ 30.6 µM) | MIC (Streptomyces albus): 8 µg/mL (≈ 15.3 µM) | IC50 at 24 h [2]: 3.92 µg/mL (≈ 7.49 µM) | MIC (Staphylococcus aureus [3]): 16 µg/mL (≈ 30.6 µM) | selectivity ratio [4]: 11 | HC50 at 1 h [5]: 5570 µg/mL | MIC (Staphylococcus aureus [6]): 16 µg/mL (≈ 30.6 µM) | selectivity ratio [7]: > 1000 | MIC (Staphylococcus aureus [8]): 6 µg/mL (≈ 11.5 µM) | MIC (Staphylococcus hominis): 8 µg/mL (≈ 15.3 µM) | MIC (Staphylococcus aureus [9]): 16 µg/mL (≈ 30.6 µM) | MIC (Staphylococcus aureus [10]): 6 µg/mL (≈ 11.5 µM) | IC50 (HeLa): 5 µg/mL (≈ 9.55 µM) | MIC (Staphylococcus aureus [11]): 0.5 µg/mL (≈ 0.955 µM) | MIC (Staphylococcus aureus [12]): 3 µg/mL (≈ 5.73 µM) | IC50 at 24 h [13]: 5.55 µg/mL (≈ 10.6 µM) | IC50 at 24 h [14]: 2.79 µg/mL (≈ 5.33 µM) | Activity (Staphylococcus aureus [15]): inactive | MIC (Staphylococcus aureus [16]): 6 µg/mL (≈ 11.5 µM) | MIC (Staphylococcus aureus [17]): 6 µg/mL (≈ 11.5 µM) | MIC (Staphylococcus aureus [18]): 16 µg/mL (≈ 30.6 µM) | MIC (Staphylococcus aureus [19]): 2 µg/mL (≈ 3.82 µM) | MIC (Staphylococcus aureus [20]): 6 µg/mL (≈ 11.5 µM) | IC50 (A549): 3.61 µg/mL (≈ 6.9 µM) | MIC (Staphylococcus aureus [21]): 6 µg/mL (≈ 11.5 µM)

CCCCC(=O)N(Cc1ccc2oc3ccccc3c2c1)c1ccc2ccccc2c1O
MIC (Staphylococcus aureus [11]): 62.5 µg/mL (≈ 148 µM) | MIC (Staphylococcus aureus [19]): 125 µg/mL (≈ 295 µM)

O=C(CCC(F)(F)F)N(Cc1cc2ccccc2s1)c1cc(-c2ccc(F)cc2)ccc1O
MIC (Staphylococcus aureus [1]): 3 µg/mL (≈ 6.34 µM) | MIC (Streptomyces albus): 16 µg/mL (≈ 33.8 µM) | IC50 at 24 h [2]: 14.7 µg/mL (≈ 31 µM) | MIC (Staphylococcus aureus [3]): 2 µg/mL (≈ 4.22 µM) | selectivity ratio [4]: 18 | HC50 at 1 h [5]: 2150 µg/mL | MIC (Staphylococcus aureus [6]): 6 µg/mL (≈ 12.7 µM) | selectivity ratio [7]: > 1000 | MIC (Staphylococcus aureus [8]): 2 µg/mL (≈ 4.22 µM) | MIC (Staphylococcus hominis): 8 µg/mL (≈ 16.9 µM) | MIC (Staphylococcus aureus [9]): 2 µg/mL (≈ 4.22 µM) | MIC (Staphylococcus aureus [10]): 6 µg/mL (≈ 12.7 µM) | IC50 (HeLa): 16.7 µg/mL (≈ 35.3 µM) | MIC (Staphylococcus aureus [11]): 1 µg/mL (≈ 2.11 µM) | MIC (Staphylococcus aureus [12]): 2 µg/mL (≈ 4.22 µM) | Survival (Staphylococcus aureus [22]): <1% | IC50 at 24 h [13]: 17.3 µg/mL (≈ 36.6 µM) | IC50 at 24 h [14]: 20.7 µg/mL (≈ 43.8 µM) | Activity (Staphylococcus aureus [15]): inactive | MIC (Staphylococcus aureus [16]): 6 µg/mL (≈ 12.7 µM) | MIC (Staphylococcus aureus [17]): 2 µg/mL (≈ 4.22 µM) | MIC (Staphylococcus aureus [18]): 6 µg/mL (≈ 12.7 µM) | MIC (Staphylococcus aureus [19]): 1 µg/mL (≈ 2.11 µM) | MIC (Staphylococcus aureus [20]): 2 µg/mL (≈ 4.22 µM) | IC50 (A549): 10 µg/mL (≈ 21.1 µM) | MIC (Staphylococcus aureus [21]): 2 µg/mL (≈ 4.22 µM)

COc1ccccc1-c1ccc(O)c(N(Cc2cc3ccccc3s2)C(=O)CCC(F)(F)F)c1
MIC (Staphylococcus aureus [1]): > 16 µg/mL | MIC (Streptomyces albus): 16 µg/mL (≈ 33 µM) | MIC (Staphylococcus aureus [3]): 6 µg/mL (≈ 12.4 µM) | MIC (Staphylococcus aureus [6]): 16 µg/mL (≈ 33 µM) | MIC (Staphylococcus aureus [8]): 3 µg/mL (≈ 6.18 µM) | MIC (Staphylococcus hominis): > 32 µg/mL | MIC (Staphylococcus aureus [9]): 16 µg/mL (≈ 33 µM) | MIC (Staphylococcus aureus [10]): 6 µg/mL (≈ 12.4 µM) | MIC (Staphylococcus aureus [11]): 1 µg/mL (≈ 2.06 µM) | MIC (Staphylococcus aureus [12]): 3 µg/mL (≈ 6.18 µM) | MIC (Staphylococcus aureus [16]): 16 µg/mL (≈ 33 µM) | MIC (Staphylococcus aureus [17]): 16 µg/mL (≈ 33 µM) | MIC (Staphylococcus aureus [18]): 16 µg/mL (≈ 33 µM) | MIC (Staphylococcus aureus [19]): 1 µg/mL (≈ 2.06 µM) | MIC (Staphylococcus aureus [20]): 6 µg/mL (≈ 12.4 µM) | MIC (Staphylococcus aureus [21]): 3 µg/mL (≈ 6.18 µM)

CCCCC(=O)N(Cc1ccc2c(c1)OCO2)c1ccc2ccccc2c1O
MIC (Staphylococcus aureus [11]): 31.2 µg/mL (≈ 82.8 µM) | MIC (Staphylococcus aureus [19]): 31.2 µg/mL (≈ 82.8 µM)

CCCC(=O)N(Cc1cc2ccccc2s1)c1ccc2ccccc2c1O
MIC (Staphylococcus aureus [11]): > 250 µg/mL | MIC (Staphylococcus aureus [19]): > 250 µg/mL

C=CCCC(=O)N(Cc1cc2ccccc2s1)c1ccc2ccccc2c1O
MIC (Staphylococcus aureus [11]): > 250 µg/mL | MIC (Staphylococcus aureus [19]): > 250 µg/mL

CCCCC(=O)N(Cc1cc(C(C)(C)C)cc(C(C)(C)C)c1)c1ccc2ccccc2c1O
MIC (Staphylococcus aureus [11]): 62.5 µg/mL (≈ 140 µM) | MIC (Staphylococcus aureus [19]): 62.5 µg/mL (≈ 140 µM)
